What was measured:
Format in all cases: cell-based
[1] = tested on: murine macrophage cell line, RAW264.7; assay: Inhibition of nitric oxide synthesis in LPS-stimulated RAW264.7 macrophages (Griess reaction); settings: single substance
Description: The anti-inflammatory effect of a mixture of MA/HO (1:3 w/w) in combination with chondroitin sulfate was determined in cellular assays by measuring the inhibition of the synthesis of nitric oxide. Nitric oxide (NO) is a hallmark of inflammation in various chronic inflammatory diseases including various forms of arthritis, gastro-intestinal diseases and metabolic syndrome X.
The effects on the inflammatory response were tested in cellular assays using a murine macrophage cell line, RAW264.7. The cells were purchased from ATCC (Manassas, Va., USA) and cultured in DMEM containing streptomycin/penicillin, non-essential amino acids and 10% fetal calf serum (FCS). In order to test a large range of concentration of a mixture of MA and HO (1:3) as well as mixtures thereof, cells (˜50,000/well) were seeded into flat-bottomed microtiter plates and cultured for one day. […] Concentrations of nitrite which was rapidly formed from nitric oxide released by cells were determined by the Griess reaction using sodium nitrite as standard. Briefly, 50 μl of supernatant was mixed with Griess reagent 1 (25 μL) and Griess reagent 2 (25 μL), centrifuged and the optical density at 540 nm determined. […] IC50 values for LPS-stimulated cells were calculated using a […] least-square fitting equation [y=A+((B−A)/(1+((C−x)̂D))] for best-fit curves (Excel fit software program). […]

[2] = tested on: Aggrecan; assay: Aggrecan gene expression (mRNA, RT-PCR) in normal human chondrocytes; settings: 500 mg/L; stim., 4 hrs; control set at 100%
Description: (§1) The effect of a MA/HO (1:3 w/w) mixture in combination with chondroitin was tested on the expression of human aggrecan, collage I, collagen II, or chondrocyte transcription factors (SOX-6, -9) in vitro in normal human chondrocytes (derived from knee) (CC-2550; Cambrex, respectively). A control experiment without the compounds was done concomitantly to compare the expression of these genes (percentage expression of gene in controls was set to 100%). Normal human chondrocytes were cultured for 4 hours with MA/HO (1:3 w/w) (at 12.5 μmol/L), chondroitin (at 500 mg/L) as well as with both. The level of mRNA was determined by RT-PCR (Richard et al. Mol. Nutr. Food Res. 49, 431-442, 2005) and expressed relative to the level observed in cells cultured without the substances. The given values indicate the level of gene expression (in % of unstimulated cells [set at 100%] for anabolic and anti-catabolic genes; in % of IL1β-treated cells [set at 100%], for catabolic genes).

[3] = tested on: SOX-9; assay: SOX-9 gene expression (mRNA, RT-PCR) in normal human chondrocytes; settings: 500 mg/L; % of unstimulated cells set at 100%
Description: as §1

[4] = tested on: TIMP-1; assay: TIMP-1 gene expression (mRNA, RT-PCR) in normal human chondrocytes; settings: 500 mg/L; unstim., 4 d; % of unstimulated cells set at 100%
Description: as §1, with “Normal human chondrocytes were cultured for 4 hours with MA/HO (1:3 w/w) (at 12.5 μmol/L), chondroitin (at 500 mg/L) as well as with both.” left out

[5] = tested on: MMP-2; assay: MMP-2 gene expression (mRNA, RT-PCR) in normal human chondrocytes; settings: 500 mg/L; 4 d; % of IL1β-treated cells set at 100%
Description: as §1, with “Normal human chondrocytes were cultured for 4 hours with MA/HO (1:3 w/w) (at 12.5 μmol/L), chondroitin (at 500 mg/L) as well as with both.” left out

[6] = tested on: ADAMTS-5; assay: ADAMTS-5 gene expression (mRNA, RT-PCR) in normal human chondrocytes; settings: 500 mg/L; stim, 4 hrs; % of IL1β-treated cells set at 100%
Description: as §1

chondroitin sulfate
IC50 Nitric Oxide ([1]; RAW264.7, LPS 1 μg/ml, 24 hours): >50 µg/mL
anti-inflammatory activity (inhibition of nitric oxide), in words ([1]; RAW264.7, LPS-stimulated): marginal anti-inflammatory
Aggrecan gene expression level [2]: 62%
SOX-9 gene expression level [3]: 147%
TIMP-1 gene expression level [4]: 106%
MMP-2 gene expression level [5]: 93%
ADAMTS-5 gene expression level [6]: 107%

— US20090149420A1, “NOVEL COMPOSITIONS AND USE THEREOF FOR THE TREATMENT, CO-TREATMENT OR PREVENTION OF INFLAMMATORY DISORDERS” (priority 2007, published 2009)
